Read-outs that look alike come from different tables or passages of the source.
Test system: bacterial pool of seven organisms
Experiment: Dow time-kill test in pH 7.4 hand dish-washing liquid, with Kull synergy index
Type: cell-based
Conditions: for Concentration required to achieve >=4 Log bacterial counts reduction: bacterial pool, pH 7.4 hand dish-washing liquid, 37° C., active ingredient basis
Protocol: Four biocides and their combinations were tested at different concentration ranges. […] All biocide solutions were prepared and diluted in sterile DI water and used within 2 hours. These biocides are commercially available from The Dow Chemical Company. [table] A bacteria pool was used for testing. 24 hr bacterial cultures were obtained in TSB (Tryptic Soy Broth) media at 37° C. incubation for the seven organisms. The bacterial pool of seven organisms was prepared by taking equal parts of a 24 hour stationary phase aliquot from each bacterial culture and mixing them together. […] The time-kill tests were carried out to determine the threshold concentration of the biocide products in pH 7.4 hand dish-washing liquid. […] Biocides were then added into this bacterial suspension at various levels and mixed immediately. The mixed samples were then incubated at 37° C. At 24 hrs, viable bacteria remaining in the hand dish-washing samples were determined by 1:10 serial dilutions, transferring 20 ul aliquot of each sample into 180 ul TSB/Resazurin media. Triplicate tests were conducted. MPN method was used to determine the microbial concentration at after 24 hours incubation at 37° C. […] One measure of synergism is the industrially accepted method described by Kull, […]. and Mayer, R. L., in Applied Microbiology 9:538-541 (1961), using the ratio determined by the formula: Qa/QA+Qb/QB=Synergy Index (“SI”) wherein: • QA=concentration of compound A (first component) in ppm, acting alone, which produced an end point (MIC of Compound A). • Qa=concentration of compound A in ppm, in the mixture, which produced an end point. • QB=concentration of compound B (second component) in ppm, acting alone, which produced an end point (MIC of Compound B). • Qb=concentration of compound B in ppm, in the mixture, which produced an end point. When the sum of Qa/QA and Qb/QB is greater than one, antagonism is indicated. […] The lower the SI, the greater the synergy shown by that particular mixture. The minimum inhibitory concentration (MIC) of a microbicide is the lowest concentration tested under a specific set of conditions that prevents the growth of added microorganisms.

| Structure (SMILES) | Concentration required to achieve >=4 Log bacterial counts reduction (24 h) [ppm] | MIC (Bacterial Pool, 24 hours, BIT alone (QA) or BIT in mixture with SOPP (Qa), read-out: Minimum Inhibitory Concentration (ppm) BIT) [µg/mL] | MIC (24 h, read-out: Minimum Inhibitory Concentration (ppm) MIT) [µg/mL] | Minimum Inhibitory Concentration (ppm) SOPP (Bacterial Pool, 24 hours, SOPP alone (QB) or SOPP in mixture with BIT (Qb)) [ppm] | Minimum Inhibitory Concentration (ppm) SOPP (Bacterial Pool, 24 hours, SOPP alone (QB) or SOPP in mixture with CMIT/MIT (Qb)) [ppm] | Minimum Inhibitory Concentration (ppm) SOPP (Bacterial Pool, 24 hours, SOPP alone (QB) or SOPP in mixture with MIT (Qb)) [ppm] |
| --- | --- | --- | --- | --- | --- | --- |
| O=c1[nH]sc2ccccc12 [BIT, 1,2-benzisothiazol-3-one] | 400 | 400 |  |  |  |  |
| Cn1sccc1=O [MIT, 2-Methylisothiazol-3-one] | >95 |  | > 95 |  |  |  |
| [Na+].[O-]c1ccccc1-c1ccccc1 [SOPP, sodium orthophenylphenate] | 358.5 |  |  | 358.5 | 358.5 | 358.5 |

Source: US20180092360A1, “MICROBICIDAL COMPOSITION” (Dow Global Technologies LLC, priority 2015, published 2018)
